Ends that are not written are not given here.
Legend:
TfR1 = test: Western blot of TfR1 expression in macrophages; assay type: cell-based, murine; conditions: RAW 264.7, 10 μM, 4 h at 37° C.
Description: (§1) A, RAW 264.7 macrophages were treated with 11 μM and 10 μM of synthetic hepcidin-25 (having the sequence of SEQ ID NO. 2) and Hep-25His (having the sequence of SEQ ID NO. 6) for 4 h at 37° C. or with PBS as negative control. Cell lysates were subjected to 8% SDS PAGE and Western Blot with antibodies against TfR1, Ferroportin and actin as loading control. B, The signal density of ferroportin, TfR1 and actin protein bands from two independent experiments were quantified by densitometry and their intensity relative to actin was calculated. […] Hep25-His, negative peptide and PBS was incubated with Raw 264.7 macrophages, followed by cross-linking with DSS. Cell lysates were incubated with Ni2-NTA and eluates were analyzed by Western blot using anti-FPN1 Ab. […] HEK293-Fpn cells were induced with ponasterone for 24 h and then treated with Hep25-His or synthetic hepcidin 25 (s. Hep25) for 3 h. Fluorescence was visualized with a Leica TCS confocal microscope.
Western blotting—1×10^6 cells (RAW 264.7, THP-1 or J774) were plated in […] plates and after 12-20 h cells were treated with hepcidins in serum-free DMEM for 4 h, at 37° C. Afterwards, cells were re-suspended in lysis buffer (1% Triton, 25 mM Hepes pH 7.4, 150 mM NaCl, 10% Glycerol, 5 mM EDTA, 0.5 mM PMSF, protein inhibitors (Roche, Mannheim, Germany) and quantified by Bradford assay (Biorad, Hercules, Calif.). 30 μg of cell lysate was analyzed on 8% SDS-PAGE. Proteins were transferred to Hybond C nitrocellulose membrane (Amersham Biosciences, Piscataway, N.J.) and the membranes were incubated with the primary antibodies rabbit anti-ferroportin (Alpha Diagnostics, San Antonio, Tex.), mouse anti-TfR1 (Zymed, Invitrogen, Carlsbad, Calif.) and mouse anti-β actin (Santa Cruz Biotech, Santa Cruz, Calif.), in a dilution of 1:1000, overnight at 4° C. […] Specific signal was detected with a chemiluminescence assay kit (ECL, Amersham Biosciences, Piscataway, N.J.). The bands were quantified by densitometry using the Quantity-One (Biorad, Hercules, Calif.) software. […]

ferroportin (FPN1) = target: T1, ferroportin (FPN1) (Mus musculus, UniProt Q9JHI9); test: Western blot of ferroportin expression in macrophages; assay type: cell-based, murine; conditions: data not shown
T1 construct: endogenous in cells; host or cells: RAW 264.7 murine macrophages
T1 sequence (Q9JHI9 1-570): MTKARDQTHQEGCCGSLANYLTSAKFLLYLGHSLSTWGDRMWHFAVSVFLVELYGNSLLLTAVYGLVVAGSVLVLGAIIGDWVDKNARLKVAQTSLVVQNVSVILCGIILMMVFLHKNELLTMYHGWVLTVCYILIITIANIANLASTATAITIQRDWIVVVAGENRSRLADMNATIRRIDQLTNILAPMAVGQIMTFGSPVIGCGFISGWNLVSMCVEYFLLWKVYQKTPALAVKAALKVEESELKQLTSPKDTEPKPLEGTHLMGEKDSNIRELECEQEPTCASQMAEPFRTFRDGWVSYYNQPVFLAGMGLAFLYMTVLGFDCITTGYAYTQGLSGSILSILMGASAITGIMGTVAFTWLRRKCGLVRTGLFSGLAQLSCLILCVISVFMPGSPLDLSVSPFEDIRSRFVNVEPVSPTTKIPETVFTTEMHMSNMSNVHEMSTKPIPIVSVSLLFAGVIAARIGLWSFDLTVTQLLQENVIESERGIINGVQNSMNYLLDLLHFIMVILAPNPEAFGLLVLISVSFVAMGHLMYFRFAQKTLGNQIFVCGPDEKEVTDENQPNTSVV
Description: as §1
Western blotting—1×10^6 cells (RAW 264.7, THP-1 or J774) were plated in […] plates and after 12-20 h cells were treated with hepcidins in serum-free DMEM for 4 h, at 37° C. Afterwards, cells were re-suspended in lysis buffer (1% Triton, 25 mM Hepes pH 7.4, 150 mM NaCl, 10% Glycerol, 5 mM EDTA, 0.5 mM PMSF, protein inhibitors (Roche, Mannheim, Germany) and quantified by Bradford assay (Biorad, Hercules, Calif.). 30 μg of cell lysate was analyzed on 8% SDS-PAGE. Proteins were transferred to Hybond C nitrocellulose membrane (Amersham Biosciences, Piscataway, N.J.) and the membranes were incubated with the primary antibodies rabbit anti-ferroportin (Alpha Diagnostics, San Antonio, Tex.), mouse anti-TfR1 (Zymed, Invitrogen, Carlsbad, Calif.) and mouse anti-β actin (Santa Cruz Biotech, Santa Cruz, Calif.), in a dilution of 1:1000, overnight at 4° C. After washing, the membranes were incubated with anti-rabbit and anti-mouse secondary antibodies conjugated with HRP, in a dilution of 1:5000 (DakoCytomation, Carpinteria, Calif.), for 1 h at room temperature. Specific signal was detected with a chemiluminescence assay kit (ECL, Amersham Biosciences, Piscataway, N.J.). The bands were quantified by densitometry using the Quantity-One (Biorad, Hercules, Calif.) software. Data are shown as means±SD. Statistical analysis was performed by student t-Test.

bacteria ML35p = conditions: at 30 μM concentration; cited from earlier work

Description for E. coli strain ML35: Antimicrobial activity of recombinant tagged hepcidins. E. coli strain ML35 was subjected to CFU assay in order to determine the antimicrobial activity of synthetic hepcidin 25 (s. Hep25) having the sequence os SEQ ID NO. 2, Hep-25His having the sequence of SEQ ID NO. 6, Hep-25MycHis having the sequence of SEQ ID NO. 8, Hep-20MycHis having the sequence of SEQ ID NO. 7 and negative peptide having the sequence SEQ ID NO. 9 at the concentrations indicated for 2 h at 37° C. Sodium phosphate buffer was used as negative control.
Antimicrobial assay—All purified recombinant hepcidins were tested for antibacterial activity against E. coli ML35 and BL21(DE) is a CFU assay (Porter E. M., van Dam E., Valore E. V., Ganz T., Broad-spectrum antimicrobial activity of human intestinal defensin 5, Infect. Immun. 65 (1997) 2396-2401.). Bacterial cell cultures were grown to OD600=0.2 (5×10^7 cfu/ml) and resuspended to a final concentration of 10^6 cfu/ml in 20mM sodium phosphate buffer, pH7.4. Various concentrations of peptides were added to a final volume of 100 μl and after incubation for 2 h at 37° C., surviving cells were plated in triplicates to LB/agar plates.
Antimicrobial activity of recombinant hepcidins—The colony forming unit assay (E. M. Porter, E. van Dam, E. V. Valore, T. Ganz, Broad-spectrum antimicrobial activity of human intestinal defensin 5, Infect. Immun. 65 (1997) 2396-2401) was used to determine the antimicrobial activity of the purified recombinant hepcidin forms against the E. coli strain, ML35. […] Surviving microbes were counted following incubation with various concentrations of recombinant hepcidin preparations, synthetic hepcidin or negative peptide for 2 h at 37° C.

CC[C@H](C)[C@@H]1NC(=O)[C@@H](NC(=O)[C@@H](NC(=O)[C@@H]2CCCN2C(=O)[C@H](Cc2ccccc2)NC(=O)[C@H](Cc2c[nH]cn2)NC(=O)[C@@H](NC(=O)[C@@H](N)CC(=O)O)[C@@H](C)O)[C@@H](C)CC)CSSC[C@@H](C(=O)N[C@@H](CCCCN)C(=O)N[C@H](C(=O)O)[C@@H](C)O)NC(=O)[C@@H]2CSSC[C@H](NC(=O)[C@H](Cc3ccccc3)NC1=O)C(=O)N[C@H]1CSSC[C@H](NC(=O)[C@H](CCCCN)NC(=O)[C@H](CO)NC(=O)[C@H](CCCNC(=N)N)NC(=O)[C@H](Cc3c[nH]cn3)NC(=O)[C@@H]3CSSC[C@H](NC(=O)CNC1=O)C(=O)N3)C(=O)NCC(=O)N[C@@H](CCSC)C(=O)N2 [synthetic hepcidin 25, hepcidin 25, reference compound]
reduction of TfR1 in comparison to untreated cells (TfR1): 37%±6
IC50 (E. coli strain ML35; ML35, 2 h): 9 µM

hepcidin-20 (ICIFCCGCCHRSKCGMCCKT; listed as Homo sapiens)
concentration at which bactericidal (E. coli strain ML35; CFU assay, 2 h at 37° C., data not shown): higher than 10 mM

oligomeric fraction of Hep25-His: oligomer peak of Ni-NTA purified Hep-25His from size exclusion chromatography
effect on cellular iron metabolism (ferroportin (FPN1)): no effect

hep25: hepcidin 25 as tested by Park et al. 2001 (natural, isolated from urine, or synthetic) (DTHFPICIFCCGCCHRSKCGMCCKT; ends and bridges not checked; cysteine pairing not given here; UniProt P81172 60-84, looked up)
reduction of surviving bacteria ML35p (bacteria ML35p): 1000 fold

hep20: hepcidin 20 as tested by Park et al. 2001 (ICIFCCGCCHRSKCGMCCKT; ends and bridges not checked; cysteine pairing not given here; UniProt P81172 65-84, looked up)
reduction of surviving bacteria ML35p (bacteria ML35p): 1000 fold
